From ChEMBL document CHEMBL5360622, “Leucettinibs, a Class of DYRK/CLK Kinase Inhibitors Inspired by the Marine Sponge Natural Product Leucettamine B” (J Med Chem, 2023) come the findings set out here.

The structures appear in SMILES notation. A value given as a limit tells only on which side of the number the result lay.

In assay [1] the target is Casein kinase I isoform epsilon (Homo sapiens, UniProt P49674).
Assay [2] has as its target Cyclin-dependent kinase 5/CDK5 activator 1 (Homo sapiens, UniProt Q00535). It counts as cell-based, Sf9.
Assay [3] deals with Dual specificity protein kinase CLK2 (Homo sapiens, UniProt P49760).
Chain of Dual specificity protein kinase CLK2 (P49760 whole entry): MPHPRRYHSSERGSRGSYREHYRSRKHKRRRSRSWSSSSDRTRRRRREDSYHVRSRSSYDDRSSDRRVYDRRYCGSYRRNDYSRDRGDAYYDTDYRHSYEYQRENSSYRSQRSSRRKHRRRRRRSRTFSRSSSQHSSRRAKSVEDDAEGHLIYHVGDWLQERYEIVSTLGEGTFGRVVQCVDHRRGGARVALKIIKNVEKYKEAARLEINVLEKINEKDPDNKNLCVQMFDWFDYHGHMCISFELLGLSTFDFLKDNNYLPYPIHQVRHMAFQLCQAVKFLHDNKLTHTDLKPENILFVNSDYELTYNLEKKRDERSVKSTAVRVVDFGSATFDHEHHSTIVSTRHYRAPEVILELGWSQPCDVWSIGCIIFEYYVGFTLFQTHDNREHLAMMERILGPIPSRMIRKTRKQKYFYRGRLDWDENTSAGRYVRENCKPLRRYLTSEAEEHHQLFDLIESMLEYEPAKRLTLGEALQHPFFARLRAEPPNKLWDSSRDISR
The target in assay [4] is Dual specificity protein kinase CLK3 (Homo sapiens, UniProt P49761). It counts as cell-based, Sf9.
Chain of Dual specificity protein kinase CLK3 (P49761 whole entry): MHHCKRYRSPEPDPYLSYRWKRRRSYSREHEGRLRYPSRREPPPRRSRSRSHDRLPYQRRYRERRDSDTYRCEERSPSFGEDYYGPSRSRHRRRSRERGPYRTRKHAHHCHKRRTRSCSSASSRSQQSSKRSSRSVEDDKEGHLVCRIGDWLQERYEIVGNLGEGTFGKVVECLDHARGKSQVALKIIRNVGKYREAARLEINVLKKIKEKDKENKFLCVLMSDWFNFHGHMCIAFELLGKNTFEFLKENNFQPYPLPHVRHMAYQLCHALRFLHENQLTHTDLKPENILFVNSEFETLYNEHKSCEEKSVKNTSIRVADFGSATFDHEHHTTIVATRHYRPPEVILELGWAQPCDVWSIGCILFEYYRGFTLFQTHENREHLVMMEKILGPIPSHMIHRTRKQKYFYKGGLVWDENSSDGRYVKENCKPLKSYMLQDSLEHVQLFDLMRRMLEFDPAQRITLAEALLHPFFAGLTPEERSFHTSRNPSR
The target in assay [5] is Dual specificity protein kinase CLK4 (Homo sapiens, UniProt Q9HAZ1).
Chain of Dual specificity protein kinase CLK4 (Q9HAZ1 whole entry): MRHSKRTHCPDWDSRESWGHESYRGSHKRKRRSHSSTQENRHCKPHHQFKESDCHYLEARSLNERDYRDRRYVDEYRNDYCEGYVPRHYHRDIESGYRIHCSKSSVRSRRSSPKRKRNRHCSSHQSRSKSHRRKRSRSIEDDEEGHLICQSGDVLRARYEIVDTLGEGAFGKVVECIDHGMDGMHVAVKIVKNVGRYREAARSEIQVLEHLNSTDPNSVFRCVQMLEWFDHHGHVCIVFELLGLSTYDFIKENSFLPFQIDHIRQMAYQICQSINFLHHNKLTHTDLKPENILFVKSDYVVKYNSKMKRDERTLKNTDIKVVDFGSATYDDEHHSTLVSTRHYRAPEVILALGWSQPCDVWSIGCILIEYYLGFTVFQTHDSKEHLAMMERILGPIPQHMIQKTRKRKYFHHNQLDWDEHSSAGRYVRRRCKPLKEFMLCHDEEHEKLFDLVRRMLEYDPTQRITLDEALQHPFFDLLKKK
Assay [6] addresses T1, Dual specificity tyrosine-phosphorylation-regulated kinase 2 (Homo sapiens, UniProt Q92630).
T1 sequence (Q92630 whole entry): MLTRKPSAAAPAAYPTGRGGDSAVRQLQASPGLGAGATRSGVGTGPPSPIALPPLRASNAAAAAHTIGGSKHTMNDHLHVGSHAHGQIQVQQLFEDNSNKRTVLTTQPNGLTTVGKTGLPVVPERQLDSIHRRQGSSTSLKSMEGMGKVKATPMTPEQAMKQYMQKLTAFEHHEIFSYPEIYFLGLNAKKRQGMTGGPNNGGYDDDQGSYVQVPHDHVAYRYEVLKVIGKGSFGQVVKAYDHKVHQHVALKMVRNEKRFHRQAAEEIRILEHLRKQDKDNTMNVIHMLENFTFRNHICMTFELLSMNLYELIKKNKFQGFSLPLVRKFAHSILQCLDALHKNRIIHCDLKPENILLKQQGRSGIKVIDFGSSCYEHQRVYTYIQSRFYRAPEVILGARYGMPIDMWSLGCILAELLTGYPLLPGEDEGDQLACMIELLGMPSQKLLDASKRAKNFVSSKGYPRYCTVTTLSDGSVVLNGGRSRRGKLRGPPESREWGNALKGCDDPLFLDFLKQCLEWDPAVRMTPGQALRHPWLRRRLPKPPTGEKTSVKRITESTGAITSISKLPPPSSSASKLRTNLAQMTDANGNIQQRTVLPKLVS

Assay [7] addresses T2, Dual specificity tyrosine-phosphorylation-regulated kinase 3 (Homo sapiens, UniProt O43781).
T2 sequence (O43781 whole entry): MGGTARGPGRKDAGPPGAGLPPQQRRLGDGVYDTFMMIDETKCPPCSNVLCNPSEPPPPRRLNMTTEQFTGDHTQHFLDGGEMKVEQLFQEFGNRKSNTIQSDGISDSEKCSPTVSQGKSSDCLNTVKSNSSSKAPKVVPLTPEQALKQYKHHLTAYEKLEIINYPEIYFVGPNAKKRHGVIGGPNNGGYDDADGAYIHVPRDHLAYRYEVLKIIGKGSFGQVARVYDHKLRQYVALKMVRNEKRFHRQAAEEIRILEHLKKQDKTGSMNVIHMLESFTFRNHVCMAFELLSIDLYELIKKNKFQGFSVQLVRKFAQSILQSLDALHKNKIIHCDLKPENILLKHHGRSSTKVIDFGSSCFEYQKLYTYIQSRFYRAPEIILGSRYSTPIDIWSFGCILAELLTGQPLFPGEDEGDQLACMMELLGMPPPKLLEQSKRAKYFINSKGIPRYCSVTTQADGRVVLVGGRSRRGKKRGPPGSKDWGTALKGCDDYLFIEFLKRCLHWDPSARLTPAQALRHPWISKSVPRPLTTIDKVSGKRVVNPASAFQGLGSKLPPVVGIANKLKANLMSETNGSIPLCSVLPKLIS

For assay [8], the target named is T3, Dual specificity tyrosine-phosphorylation-regulated kinase 4 (Homo sapiens, UniProt Q9NR20).
T3 sequence (Q9NR20 whole entry): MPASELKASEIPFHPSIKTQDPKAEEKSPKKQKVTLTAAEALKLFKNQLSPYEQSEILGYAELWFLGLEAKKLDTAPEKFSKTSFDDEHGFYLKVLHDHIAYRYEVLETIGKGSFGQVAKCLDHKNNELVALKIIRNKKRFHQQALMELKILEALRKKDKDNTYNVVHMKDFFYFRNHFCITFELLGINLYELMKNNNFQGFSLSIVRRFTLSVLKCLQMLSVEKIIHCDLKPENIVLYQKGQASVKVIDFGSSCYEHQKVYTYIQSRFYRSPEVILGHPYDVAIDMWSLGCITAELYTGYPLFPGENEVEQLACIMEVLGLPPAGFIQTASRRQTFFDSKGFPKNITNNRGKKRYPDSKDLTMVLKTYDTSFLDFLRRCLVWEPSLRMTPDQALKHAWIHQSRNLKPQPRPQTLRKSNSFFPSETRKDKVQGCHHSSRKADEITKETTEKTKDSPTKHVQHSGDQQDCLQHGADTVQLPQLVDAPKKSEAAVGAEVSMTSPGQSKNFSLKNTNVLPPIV

The target of assay [9] is Glycogen synthase kinase-3 beta (Homo sapiens, UniProt P49841). In kind it is cell-based, Sf9.
Chain of Glycogen synthase kinase-3 beta (P49841 whole entry): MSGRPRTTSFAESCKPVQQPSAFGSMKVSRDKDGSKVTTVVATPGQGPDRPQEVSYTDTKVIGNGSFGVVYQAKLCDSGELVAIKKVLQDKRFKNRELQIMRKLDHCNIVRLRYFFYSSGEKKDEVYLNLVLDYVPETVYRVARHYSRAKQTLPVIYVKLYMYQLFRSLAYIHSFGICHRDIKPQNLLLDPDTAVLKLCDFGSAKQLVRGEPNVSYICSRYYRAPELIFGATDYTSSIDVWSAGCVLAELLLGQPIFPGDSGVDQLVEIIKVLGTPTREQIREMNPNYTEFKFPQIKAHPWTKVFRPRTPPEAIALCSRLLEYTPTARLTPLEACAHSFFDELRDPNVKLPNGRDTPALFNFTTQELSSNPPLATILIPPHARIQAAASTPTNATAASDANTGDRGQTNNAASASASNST

Chain of Casein kinase I isoform epsilon (P49674 whole entry, canonical isoform): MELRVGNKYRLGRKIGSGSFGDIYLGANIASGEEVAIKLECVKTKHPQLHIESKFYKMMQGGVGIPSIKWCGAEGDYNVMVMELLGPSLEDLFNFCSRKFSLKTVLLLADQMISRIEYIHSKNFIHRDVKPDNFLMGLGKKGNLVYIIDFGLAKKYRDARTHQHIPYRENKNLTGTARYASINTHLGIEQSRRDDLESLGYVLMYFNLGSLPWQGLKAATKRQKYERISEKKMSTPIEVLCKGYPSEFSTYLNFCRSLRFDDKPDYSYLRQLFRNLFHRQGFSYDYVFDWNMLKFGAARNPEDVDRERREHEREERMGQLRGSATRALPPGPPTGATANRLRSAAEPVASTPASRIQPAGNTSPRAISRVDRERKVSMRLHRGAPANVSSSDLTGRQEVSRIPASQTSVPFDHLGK
Chain of Cyclin-dependent kinase 5/CDK5 activator 1 (Q00535 whole entry): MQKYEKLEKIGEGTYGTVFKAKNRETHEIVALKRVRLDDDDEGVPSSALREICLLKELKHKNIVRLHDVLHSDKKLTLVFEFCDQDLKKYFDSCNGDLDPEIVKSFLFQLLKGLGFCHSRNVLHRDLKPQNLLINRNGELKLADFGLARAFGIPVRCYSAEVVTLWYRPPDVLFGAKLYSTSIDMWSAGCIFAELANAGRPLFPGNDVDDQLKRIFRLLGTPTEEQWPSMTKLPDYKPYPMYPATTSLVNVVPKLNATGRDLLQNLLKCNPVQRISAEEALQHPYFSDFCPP
Chain of Cyclin-dependent kinase 5/CDK5 activator 1 (Q15078 whole entry, further chain): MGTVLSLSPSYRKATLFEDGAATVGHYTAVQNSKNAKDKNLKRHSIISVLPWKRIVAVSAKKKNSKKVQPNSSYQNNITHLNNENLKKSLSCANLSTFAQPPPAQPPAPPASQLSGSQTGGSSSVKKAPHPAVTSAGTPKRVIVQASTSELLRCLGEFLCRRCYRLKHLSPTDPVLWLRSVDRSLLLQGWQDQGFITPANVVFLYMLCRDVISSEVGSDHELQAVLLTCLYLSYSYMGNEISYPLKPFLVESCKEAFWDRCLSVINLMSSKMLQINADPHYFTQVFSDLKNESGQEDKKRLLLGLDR

One may read the IC50 as the midpoint of a concentration-inhibition curve. `CN1CCCC(NC2=N/C(=C\c3ccc4ncsc4c3)C(=O)N2)C1` (racemic): the IC50 was above 10000 nM in assay [1]; above 10000 nM in assay [2]; 771 nM in assay [3]; 1230 nM in assay [4]; 180 nM in assay [5]; 4760 nM in assay [6]. The 50% inhibitory concentration (IC50) in assay [7] was 887 nM; in assay [8] it was 7040 nM; in assay [9] it was above 10000 nM.

For the compound `COCC(Cc1ccccc1)NC1=N/C(=C\c2ccc3ncsc3c2)C(=O)N1` (stereo not drawn), the IC50 is above 10000 nM in [1]; above 10000 nM in assay [2]; 99 nM in [3]; 808 nM in assay [4]; 12 nM in [5]; 400 nM in assay [6]. Further, the results for the 50% inhibitory concentration (IC50) in [7], in assay [8] and in assay [9] were 2380 nM, 374 nM and 4250 nM, respectively.

As for `CC(C)(C)C(=O)OC12CC3CC(CC(NC4=N/C(=C\c5ccc6ncsc6c5)C(=O)N4)(C3)C1)C2`, the half-maximal inhibitory concentration (IC50) in assay [1] is above 10000 nM; in assay [2], above 10000 nM; in assay [3], 1310 nM; in assay [4], above 10000 nM; in assay [5], 436 nM; in [6], above 10000 nM. Also, the IC50 in [7], in [8] and in [9] was above 10000 nM each time.

Regarding `CC1(C)C2CCC1(C)[C@H](NC1=N/C(=C\c3ccc4ncsc4c3)C(=O)N1)C2` (stereo partly drawn), the concentration for half-maximal inhibition (IC50) is above 10000 nM in assay [1]; above 10000 nM in assay [2]; 17 nM in [3]; 738 nM in assay [4]; 11 nM in assay [5]; 176 nM in [6]. The IC50 was 223 nM in assay [7], 221 nM in assay [8] and above 10000 nM in assay [9].

`CC(=O)N1CCc2ccc(NC3=N/C(=C\c4ccc5ncsc5c4)C(=O)N3)cc21`: the IC50 in assay [1] was above 10000 nM; in [2], above 10000 nM; in [3], 869 nM; in [4], 2240 nM; in assay [5], 21 nM; in assay [6] it was 257 nM. Besides, the figures for the 50% inhibitory concentration (IC50) in assay [7], in [8] and in [9] were 443 nM, 705 nM and 1830 nM, respectively.

Consider `CC1(C)CNC(=O)C1NC1=N/C(=C\c2ccc3ncsc3c2)C(=O)N1` (racemic), for which the IC50 in assay [1] was above 10000 nM; in assay [2], above 10000 nM; in assay [3] it was 923 nM; in assay [4], 4480 nM; in [5], 28 nM; in assay [6], 854 nM. Besides, the IC50 in assay [7] was 2020 nM; in assay [8], 3470 nM; in [9], above 10000 nM.

For `CC(C)[C@@H]1CC[C@@H](C)C[C@H]1NC1=N/C(=C\c2ccc3ncsc3c2)C(=O)N1`, the concentration for half-maximal inhibition (IC50) was above 10000 nM in [1]; above 10000 nM in assay [2]; 211 nM in assay [3]; 2740 nM in assay [4]; 147 nM in assay [5]; 9720 nM in [6]. Also, the IC50 in [7] is 2450 nM; in assay [8] it was 2560 nM; in assay [9], above 10000 nM.

With `Cc1nc2ccc(/C=C3\N=C(NC45CC6CC(CC(C6)C4)C5)NC3=O)cc2s1`, the IC50 in assay [1] is above 10000 nM; in assay [2], above 10000 nM; in assay [3], 1340 nM; in [4], above 10000 nM; in [5] it was 20 nM; in assay [6], 666 nM. Further, the figures for the half-inhibitory concentration (IC50) in assay [7], in [8] and in assay [9] were 324 nM, above 10000 nM and above 10000 nM, respectively.

Consider `O=C1NC(NCC2CCOCC2)=N/C1=C\c1ccc2ncsc2c1`, for which the 50% inhibitory concentration (IC50) in [2] is above 10000 nM; in [3] it was 94 nM; in assay [4] it was 698 nM; in assay [5], 12 nM; in assay [6], 811 nM; in assay [7] it was 1130 nM. The IC50 was 1290 nM in assay [8] and above 10000 nM in assay [9].

For `O=C1NC(NC2COC2)=N/C1=C\c1ccc2ncsc2c1`, the IC50 is above 10000 nM in [1]; above 10000 nM in assay [2]; 614 nM in [3]; 491 nM in assay [4]; 14 nM in assay [5]; 574 nM in assay [6]. The half-inhibitory concentration (IC50) was 1430 nM in assay [7], 2160 nM in assay [8] and 5920 nM in [9].

As to `O=C1NC(NC2CCNC2=O)=N/C1=C\c1ccc2ncsc2c1` (racemic), the 50% inhibitory concentration (IC50) in [1] was above 10000 nM; in assay [2], above 10000 nM; in assay [3], 1030 nM; in [4] it was 1150 nM; in assay [5] it was 33 nM; in assay [6] it was 1660 nM. In addition, the values for the concentration for half-maximal inhibition (IC50) in assay [7], in assay [8] and in [9] were 2560 nM, 3120 nM and above 10000 nM, respectively.

In the case of `Cn1ncc2cccc(NC3=N/C(=C\c4ccc5ncsc5c4)C(=O)N3)c21`, the half-inhibitory concentration (IC50) in assay [1] is above 10000 nM; in [2], above 10000 nM; in [3], 698 nM; in [4] it was 1550 nM; in [5], 73 nM; in assay [6], 5630 nM. Further, the IC50 in assay [7] was 4050 nM; in assay [8], 4820 nM; in assay [9], 3680 nM.

As for `CN1CCC(CNC2=N/C(=C\c3ccc4ncsc4c3)C(=O)N2)CC1`, the concentration for half-maximal inhibition (IC50) is above 10000 nM in assay [1]; above 10000 nM in [2]; 3660 nM in assay [3]; above 10000 nM in assay [4]; 1500 nM in [5]; above 10000 nM in assay [6]. Besides, the concentration for half-maximal inhibition (IC50) is 1590 nM in assay [7], above 10000 nM in [8] and above 10000 nM in assay [9].

Turning to `Cc1ccc(CNC2=N/C(=C\c3ccc4ncsc4c3)C(=O)N2)o1`, the IC50 was above 10000 nM in assay [2]; 127 nM in [3]; 722 nM in assay [4]; 24 nM in assay [5]; 1890 nM in assay [6]; 1800 nM in assay [7]. The IC50 in [8] came out at 1630 nM; in assay [9], 2810 nM.

Take `CO[C@@H]1Cc2ccccc2[C@H]1NC1=N/C(=C\c2ccc3ncsc3c2)C(=O)N1` (racemic): the IC50 was above 10000 nM in [1]; above 10000 nM in assay [2]; 50 nM in [3]; 848 nM in [4]; 14 nM in assay [5]; 235 nM in assay [6]. Moreover, the results for the half-inhibitory concentration (IC50) in assay [7] and in assay [9] were 741 nM and 1270 nM, respectively.

Consider `COC(=O)[C@H](CC(C)C)NC1=N/C(=C\c2ccc3ncsc3c2)C(=O)N1`, for which the half-inhibitory concentration (IC50) in [2] was above 10000 nM; in assay [3], 219 nM; in assay [4], 1700 nM; in assay [5], 17 nM; in [6] it was 903 nM; in [7], 1540 nM. The IC50 in assay [8] was 821 nM; in assay [9], 4100 nM.

In the case of `COC(=O)[C@@H](CC(C)C)NC1=N/C(=C\c2ccc3ncsc3c2)C(=O)N1`, the half-inhibitory concentration (IC50) in assay [2] is above 10000 nM; in assay [3] it was 378 nM; in [4], 852 nM; in [5], 34 nM; in assay [6], 2370 nM; in assay [7] it was 5070 nM. Besides, the IC50 in assay [8] was found to be 2260 nM; in [9], 1340 nM.
